Laboratory results taken from PubChem BioAssay AID2060602 (Molecular Pharmacology Branch, DTP, NCI, 2025).
pIC50: −log10 of the molar value.

Tested on: 648629-189-R-J1-PDC complex spheroids viability
Assay: Anticancer human tumor 648629-189-R-J1-PDC patient-derived bladder carcinoma cell line growth inhibition [CLK]
Conditions: for pIC50: curve of first compound; for viability, T/C: stronger effect = lower value
Method in brief: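 Multi-cell-type spheroids combined patient-derived tumor cells with HUVEC endothelial cells and human mesenchymal stem cells. Paired agents were dosed in half-log steps down from about clinical Cmax, or from 10 microM where Cmax was unknown.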
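Wherever viability, T/C is given: drug exposure lasted seven days before viability readout; 100% = DMSO vehicle control wells.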

For CCc1c2c(nc3ccc(O)cc13)-c1cc3c(c(=O)n1C2)COC(=O)[C@]3(O)CC + CN1CCN(c2cc(C(=O)Nc3cc4cc(-c5cnn(C)c5)ccc4cn3)ccn2)CC1, the pIC50 (second compound 0.0316 µM) was greater than 8.50, the pIC50 (second compound 0.1 µM) was greater than 8.50 and the pIC50 (second compound 0.316 µM) was greater than 8.50. It also gave a pIC50 (second compound 1 µM) greater than 8.50, a pIC50 (second compound 3.16 µM) greater than 8.50 and a pIC50 (second compound 10 µM) greater than 8.50. It also gave a viability, T/C (second compound 0.0316 µM, first compound 0.00316 µM) of 36.5%, a viability, T/C (second compound 0.0316 µM, first compound 0.01 µM) of 14.7% and a viability, T/C (second compound 0.0316 µM, first compound 0.0316 µM) of 7.53%. For the same compound, the viability, T/C (second compound 0.0316 µM, first compound 0.1 µM) was 5.28%, the viability, T/C (second compound 0.0316 µM, first compound 0.316 µM) was 3.93% and the viability, T/C (second compound 0.0316 µM, first compound 1 µM) was 3.89%. For the same compound, the viability, T/C (second compound 0.1 µM, first compound 0.00316 µM) was 29%, the viability, T/C (second compound 0.1 µM, first compound 0.01 µM) was 15.4% and the viability, T/C (second compound 0.1 µM, first compound 0.0316 µM) was 6.89%. For the same compound, the viability, T/C (second compound 0.1 µM, first compound 0.1 µM) was 4.76%, the viability, T/C (second compound 0.1 µM, first compound 0.316 µM) was 4.13% and the viability, T/C (second compound 0.1 µM, first compound 1 µM) was 4.88%. The viability, T/C (second compound 0.316 µM, first compound 0.00316 µM) was 22.5%, the viability, T/C (second compound 0.316 µM, first compound 0.01 µM) was 16.7% and the viability, T/C (second compound 0.316 µM, first compound 0.0316 µM) was 10.8%. For the same compound, the viability, T/C (second compound 0.316 µM, first compound 0.1 µM) was 6.46%, the viability, T/C (second compound 0.316 µM, first compound 0.316 µM) was 6.71% and the viability, T/C (second compound 0.316 µM, first compound 1 µM) was 3.75%. For the same compound, the viability, T/C (second compound 1 µM, first compound 0.00316 µM) was 0.15%, the viability, T/C (second compound 1 µM, first compound 0.01 µM) was 0.14% and the viability, T/C (second compound 1 µM, first compound 0.0316 µM) was 0.15%. The viability, T/C (second compound 1 µM, first compound 0.1 µM) was 0.06%, the viability, T/C (second compound 1 µM, first compound 0.316 µM) was 0.21% and the viability, T/C (second compound 1 µM, first compound 1 µM) was 1.34%. The viability, T/C (second compound 3.16 µM, first compound 0.00316 µM) was 0.05%, the viability, T/C (second compound 3.16 µM, first compound 0.01 µM) was 1.41% and the viability, T/C (second compound 3.16 µM, first compound 0.0316 µM) was 0.1%. It also gave a viability, T/C (second compound 3.16 µM, first compound 0.1 µM) of 0.07%, a viability, T/C (second compound 3.16 µM, first compound 0.316 µM) of 0.3% and a viability, T/C (second compound 3.16 µM, first compound 1 µM) of 0.54%. It also gave a viability, T/C (second compound 10 µM, first compound 0.00316 µM) of 0.05%, a viability, T/C (second compound 10 µM, first compound 0.01 µM) of 0.52% and a viability, T/C (second compound 10 µM, first compound 0.0316 µM) of 0.17%. For the same compound, the viability, T/C (second compound 10 µM, first compound 0.1 µM) was 0.15%, the viability, T/C (second compound 10 µM, first compound 0.316 µM) was 0.22% and the viability, T/C (second compound 10 µM, first compound 1 µM) was 0.48%.
